The results in this text go back to patent publication US20170088851A1, “METHODS FOR IMPROVING ABIOTIC STRESS RESPONSE” (The Regents of the University of California, priority 2011, published 2017).

Peptide text beside a SMILES is read from it. * marks the point of attachment. Cbz = O=C(OCc1ccccc1)*

The subject of assay [1] is N-end rule pathway of targeted proteolysis (NERP). Put plainly: In vitro protein stability, heterologous rabbit reticulocyte lysate assay (TNT T7 Coupled Reticulocyte Lysate system, anti-HA immunoblot). The class given is biochemical. The following applies: for effect on in vitro stability of Arabidopsis Group VII ERFs: HA-tagged ERFs in reticulocyte lysate, 100 μM MG132 or 1 mM dipeptides; for MC-GUS degradation in the presence of the inhibitor: MC-GUS produced in rabbit reticulocyte lysate. How it is done: Protein stability analyses. Full length cDNAs were PCR amplified from either Arabidopsis thaliana or Oryza sativa L. (cv. M202 (Sub1)). N-terminal mutations were introduced using a specific forward primer. For in vitro assays, cDNAs were cloned into a modified version of the pTNT vector (Promega) to produce C-terminal HA fusions. Stability assays were performed using the TNT T7 Coupled Reticulocyte Lysate system (Promega), essentially as described previously^23. For in vivo analysis of EIRE-HA proteins, cDNAs were cloned into pE2c, mobilized into pB2GW7 and transformed into Arabidopsis using the floral dip method. To Assess relative protein stability, equal amounts of total protein extracted from 7-day old T3 homozygous seedlings were analyzed by Western blot, and cDNA synthesized from total RNA was used as a template for semi-quantitative PCR.
In vitro analysis of protein stability: To generate Arabidopsis and rice protein-HA fusions driven by the T7 promoter, cDNAs were PCR amplified from Arabidopsis total cDNA or submerged rice cDNA (M202 (Sub1); as described^3 and ligated into a modified version of the pTNT […] expression vector (pTNT3xHA). N-terminal mutations were incorporated by changing the forward primer sequences accordingly (Table 1). Proteins were expressed in vitro using the TNT T7 Coupled Reticulocyte Lysate system (Promega) according to manufacturer's guidelines, using 500 ng plasmid template. Where appropriate, 100 μM MG132 or 1 mM dipeptides (arg-β-ala or ala-ala; Sigma-Aldrich) and […] Bestatin (Sigma-Aldrich) were added. Reactions were incubated at 30° C., and samples were taken at appropriate time points before mixing with protein loading dye to terminate protein synthesis. Equal amounts of each reaction were subjected to anti-HA immunoblot analysis.
Immunoblotting: Proteins resolved by SDS-PAGE were transferred to PVDF using a MiniTrans-Blot electrophoretic transfer cell (Bio-Rad). Membranes were probed with primary antibodies at the following titres: anti-HA (Sigma-Aldrich), 1:1000; anti-α-tubulin (Sigma-Aldrich), 1:5,000, or anti-ribosomal protein 5636, (1:5,000). HRP conjugated anti-mouse secondary antibody (Santa Cruz) was used at a titre of 1:10,000. Immunoblots were developed to film using ECL Western blotting substrate (Pierce). Alignment of MC-ERF proteins from Arabidopsis and Rice: Rice and Arabidopsis ERF proteins starting with the sequence MC- were aligned and phylogenetic relationships observed using CLUSTALW37.
We investigated the possibility that all Arabidopsis Group VII ERFs as well as rice SUB1A-1 were NERP substrates.

In a further assay the test system is MC-GUS. Put plainly: Western analysis of MC-GUS protein levels in seedlings treated with cPTIO. As to conditions: WT Col-0 seedlings treated with cPTIO. Type of assay: in vivo, Arabidopsis. An excerpt: FIG. 14C Stability of MC-GUS in Col-0 is related to NO.
A further assay deals with HRE2. As to the kind of experiment: Western blot of HRE2 protein levels in vivo after cPTIO treatment. Also noted: species or system Arabidopsis. The following applies: 35S CaMV promoter. From the text: FIG. 14D Stability of the physiological substrate HRE2 is controlled by NO. Western blot showing levels of HRE2 protein in-vivo (constitutive gene transcription produced from the 35S CaMV promoter).
In general terms: Immunoblotting shows a protein as a band on a membrane.

In a further assay the test system is maplA mutant seeds. As to the kind of experiment: Seed sensitivity to ABA on germination in the presence of fumagillin. Type of assay: in vivo, Arabidopsis. An excerpt: FIG. 13B Proteins initiating MC control seed sensitivity to ABA.

With Arg-Ala, in assay [1], the “effect on in vitro stability of Arabidopsis Group VII ERFs” value was “stability was enhanced” and the “MC-GUS degradation in the presence of the inhibitor” value is “not degraded”.
As for `CC1(C)N([O])C(c2ccc(C(=O)O)cc2)=[N+]([O-])C1(C)C` [cPTIO], in the assay with MC-GUS, the “effect on MC-GUS protein level” value is “MC-GUS protein accumulates”. Moreover, the “effect on HRE2 protein level” value in the assay on HRE2 is on record as “stabilises the protein”.
As for `CO[C@@H]1[C@H](OC(=O)/C=C/C=C/C=C/C=C/C(=O)O)CC[C@]2(CO2)[C@H]1[C@@]1(C)O[C@@H]1CC=C(C)C` [fumagillin], in the assay with maplA mutant seeds, the “seed sensitivity to ABA when germinated in the presence of fumagillin” value is “hypersensitive to ABA”.
On to `CC(C)C[C@@H](C=O)NC(=O)[C@H](CC(C)C)NC(=O)[C@H](CC(C)C)NC(=O)OCc1ccccc1` [MG132] (Cbz-Leu-Leu-Leu-aldehyde), for which, in assay [1], the “effect on in vitro stability of Arabidopsis Group VII ERFs” value is on record as “stability was enhanced” and the “MC-GUS degradation in the presence of the inhibitor” value was “not degraded”.
